Test results published in ChEMBL document CHEMBL1156400, “Cedronolactone E, a novel C(19) quassinoid from Simaba cedron” (J Nat Prod, 2001).
≈ marks a conversion by molar mass, not a printed value.

Tested on: P388
Assay: Cytotoxicity against mouse P388 cells
Assay type: functional, cell-based

## C[C@@H]1[C@@H]2[C@@H](O)C(=O)O[C@@H]3C[C@@]4(C)C(=C(O[C@@]5(C)CC(=O)O[C@@H]45)[C@@H]1O)[C@]23CO [CEDRONOLACTONE E]
  IC50: 51 µg/mL (≈ 134 µM)
